Assays:
Type in all cases: biochemical
PDE5A1 = PDE5A1 (Homo sapiens, UniProt O76074); test: Selective inhibitory activity assay, PDE5A1; settings: read-out: Inhibition rate (%) of PDE5A1
Experimental: (§1) 7. Selective inhibitory activity assay for PDE1, 2, 3, 5, 7, 10 and 11 enzymes
(§2) The selective specificity of compounds for PDE4 was assessed by assaying single concentrations of the compounds. For example, PDE1a enzyme, PDElc enzyme, PDE2a enzyme, PDE3a enzyme, PDE3b enzyme, PDE5a1 enzyme, PDE7a enzyme, PDE7b enzyme, PDE10a1 enzyme and PDE11a4 enzyme were tested. The selective inhibitory effects of different compounds on the enzymatic activities of PDEIC, PDE2A, PDE3B, PDE5A1, PDE7A, and PDE10A1 at concentrations of 10 μM and 1 μM, respectively, are shown in the table below: […]

PDE4A1 = biological target: T1, PDE4A1 (Homo sapiens, UniProt P27815); test: Inhibition assay of PDE4A1 enzyme (FP kit)
T1 construct: purchased BPS 60340
Experimental: 3. Inhibition assay of PDE4A1 enzyme:
(§3) Materials and Instruments:
(§4) FAM substrate: 25 μL of a FAM substrate stock solution was added into 2500 μL of PDE assay buffer. 25 μL of the diluted substrate was added to each reaction well.
(§5) 5 μL of the compound stock solution was added to 45 μL of DMSO to prepare a 1 mM diluent. 5 μL of the 1 mM diluent was added to 45 μL of PDE assay buffer to prepare a gradient dilution starting point. Then, according to the method of adding 5 μL of the previous concentration solution to 15 μL of PDE assay buffer, gradient dilution was carried out for 9 times to prepare compound working solutions with 10 concentrations. The working solutions were added to compound wells at 5 μL/well.
(§6) PDE4A1: First, a PDE4A1 stock solution was diluted by 100 times to a concentration of 4.9 ng/μL, 1.8 μL of the diluent was added to 2200 μL of PDE assay buffer, and the mixture was added to all compound wells and positive control wells at 20 μL/well. 20 μL of PDE assay buffer was added to substrate control wells.
Binding solution: 95 μL of binding buffer was added into 9.5 mL of binder diluent, and then mixed well. The obtained mixture was added to all wells at 100 μL/well.
(§7) FPsub=Substrate control FP.

PDE4B2 = biological target: T2, PDE4B2 (Homo sapiens, UniProt Q07343); test: Inhibition assay of PDE4B2 enzyme (FP kit)
T2 construct: purchased BPS 60343
Experimental: 4. Inhibition assay of PDE4B2 enzyme:
as §3, §4, §5
as §6, with “PDE4B2:” for “PDE4A1:”, “PDE4B2” for “PDE4A1”, “5.2” for “4.9”, “3.2” for “1.8”
Binding solution: 95 μL of binder was added into 9.5 mL of binder diluent, and then mixed well. The obtained mixture was added to all wells at 100 μL/well.
as §7

PDE4D3 = PDE4D3 (Homo sapiens, UniProt Q08499); test: Inhibition assay of PDE4D3 enzyme (TR-FRET kit)
Experimental: 2. Inhibition assay of PDE4D3 enzyme:
as §3
FAM substrate: A stock solution of 20 μM FAM substrate was diluted to 200 nM with PDE assay buffer. 12.5 μL of the diluted substrate was added to each reaction well.
as §5, with “at 2.5” for “at 5”
PDE4D3: 0.054 μL of a PDE4D3 recombinase stock solution was added to 1500 μL of PDE buffer, and the mixture was added to all compound wells and positive control wells at 10 μL/well. 10 μL of PDE assay buffer was added to substrate control wells.
Binding solution: 3750 μL of binding buffer A and 3750 μL of binding buffer B were mixed well. Then, 150 μL of a binder was added into the mixture and mixed well. 7.5 μL of a Tb donor was added and mixed well. The obtained mixture was added to all wells at 50 μL/well.
S520=Read value of sample 520 nm
S490=Read value of sample 490 nm
Tb520=Read value of Tb only 520 nm
Tb490=Read value of Tb only 490 nm
FRETp=Positive control FRET
FRETsub=Substrate control FRET.

PDE3B = PDE3B (Homo sapiens, UniProt Q13370); test: Selective inhibitory activity assay, PDE3B; settings: read-out: Inhibition rate (%) of PDE3B
Experimental: as §1, §2

PDE2A = PDE2A (Homo sapiens, UniProt O00408); test: Selective inhibitory activity assay, PDE2A; settings: read-out: Inhibition rate (%) of PDE2A
Experimental: as §1, §2

PDE4C1 = biological target: T3, PDE4C1 (Homo sapiens, UniProt Q08493); test: Inhibition assay of PDE4C1 enzyme (FP kit)
T3 construct: purchased BPS 60384
Experimental: 5. Inhibition assay of PDE4C1 enzyme:
as §3
FAM substrate: 12.5 μL of a FAM substrate stock solution was added into 1250 μL of PDE assay buffer. 12.5 μL of the diluted substrate was added to each reaction well.
as §5, with “at 2.5” for “at 5”
as §6, with “PDE4C1:” for “PDE4A1:”, “PDE4C1” for “PDE4A1”, “3.2” for “4.9”, “13.75” for “1.8”, “1100” for “2200”, “10” for “20”
Binding solution: 50 μL of binder was added into 5 mL of binder diluent, and then mixed well. The obtained mixture was added to all wells at 50 μL/well.
as §7

PDE7A = PDE7A (Homo sapiens, UniProt Q13946); test: Selective inhibitory activity assay, PDE7A; settings: read-out: Inhibition rate (%) of PDE7A
Experimental: as §1, §2

PDE10A1 = PDE10A1 (Homo sapiens, UniProt Q9Y233); test: Selective inhibitory activity assay, PDE10A1; settings: read-out: Inhibition rate (%) of PDE10A1
Experimental: as §1, §2

PDE1C = PDE1C (Homo sapiens, UniProt Q14123); test: Selective inhibitory activity assay, PDE1C; settings: read-out: Inhibition rate (%) of PDE1C
Experimental: as §1, §2

Chain of PDE4D3 (Q08499 1-673 isoform Q08499-2): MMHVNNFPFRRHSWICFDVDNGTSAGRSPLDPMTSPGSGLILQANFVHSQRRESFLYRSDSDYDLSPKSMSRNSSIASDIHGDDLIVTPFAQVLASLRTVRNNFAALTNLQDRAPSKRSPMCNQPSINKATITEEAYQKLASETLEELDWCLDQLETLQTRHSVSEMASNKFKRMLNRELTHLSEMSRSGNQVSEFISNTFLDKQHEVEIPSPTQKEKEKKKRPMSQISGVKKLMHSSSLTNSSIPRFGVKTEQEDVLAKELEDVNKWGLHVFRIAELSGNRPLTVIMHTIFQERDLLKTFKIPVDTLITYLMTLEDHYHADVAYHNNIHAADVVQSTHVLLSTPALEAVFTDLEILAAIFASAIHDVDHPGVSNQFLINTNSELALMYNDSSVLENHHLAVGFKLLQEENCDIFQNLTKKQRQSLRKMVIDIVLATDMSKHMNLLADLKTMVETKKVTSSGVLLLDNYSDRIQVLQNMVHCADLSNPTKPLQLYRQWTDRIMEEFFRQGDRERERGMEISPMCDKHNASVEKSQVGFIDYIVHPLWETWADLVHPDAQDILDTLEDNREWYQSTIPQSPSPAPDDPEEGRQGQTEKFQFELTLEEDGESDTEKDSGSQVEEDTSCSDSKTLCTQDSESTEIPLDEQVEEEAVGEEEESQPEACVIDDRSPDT
Chain of PDE1C (Q14123 whole entry, species assumed): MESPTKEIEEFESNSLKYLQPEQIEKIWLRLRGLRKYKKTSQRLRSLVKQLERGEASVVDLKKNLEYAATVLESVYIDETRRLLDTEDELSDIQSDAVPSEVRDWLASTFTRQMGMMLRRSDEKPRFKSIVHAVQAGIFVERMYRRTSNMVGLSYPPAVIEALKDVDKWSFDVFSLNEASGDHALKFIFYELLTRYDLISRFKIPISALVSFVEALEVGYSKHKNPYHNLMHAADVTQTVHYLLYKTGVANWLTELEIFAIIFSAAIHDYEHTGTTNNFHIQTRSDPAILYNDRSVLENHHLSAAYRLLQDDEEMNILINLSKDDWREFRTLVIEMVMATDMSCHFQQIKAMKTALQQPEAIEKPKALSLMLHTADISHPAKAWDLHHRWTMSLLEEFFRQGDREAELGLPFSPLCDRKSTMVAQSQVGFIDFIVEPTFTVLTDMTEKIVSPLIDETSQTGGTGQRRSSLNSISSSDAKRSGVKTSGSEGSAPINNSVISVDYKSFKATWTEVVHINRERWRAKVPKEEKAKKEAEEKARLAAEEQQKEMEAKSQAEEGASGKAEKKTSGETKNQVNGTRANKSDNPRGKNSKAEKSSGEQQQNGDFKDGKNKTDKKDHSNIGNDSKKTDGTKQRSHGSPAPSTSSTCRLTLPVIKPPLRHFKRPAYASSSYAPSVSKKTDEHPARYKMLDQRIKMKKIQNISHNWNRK
T2 sequence (Q07343 1-564 isoform Q07343-2): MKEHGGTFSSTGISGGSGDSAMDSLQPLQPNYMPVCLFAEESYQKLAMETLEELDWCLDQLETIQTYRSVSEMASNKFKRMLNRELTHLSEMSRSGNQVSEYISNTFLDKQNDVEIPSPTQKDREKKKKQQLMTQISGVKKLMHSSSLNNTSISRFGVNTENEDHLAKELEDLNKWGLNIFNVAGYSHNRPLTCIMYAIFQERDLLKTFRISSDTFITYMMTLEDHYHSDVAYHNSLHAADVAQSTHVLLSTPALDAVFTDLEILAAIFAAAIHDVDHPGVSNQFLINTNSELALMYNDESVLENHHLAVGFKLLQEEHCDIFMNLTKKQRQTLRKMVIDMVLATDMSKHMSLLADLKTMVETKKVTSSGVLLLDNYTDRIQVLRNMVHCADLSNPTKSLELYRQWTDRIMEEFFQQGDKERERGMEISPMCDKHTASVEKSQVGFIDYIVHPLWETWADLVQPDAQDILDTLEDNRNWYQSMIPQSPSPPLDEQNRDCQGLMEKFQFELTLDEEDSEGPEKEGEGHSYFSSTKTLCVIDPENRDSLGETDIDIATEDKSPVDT
Chain of PDE2A (O00408 whole entry, species assumed): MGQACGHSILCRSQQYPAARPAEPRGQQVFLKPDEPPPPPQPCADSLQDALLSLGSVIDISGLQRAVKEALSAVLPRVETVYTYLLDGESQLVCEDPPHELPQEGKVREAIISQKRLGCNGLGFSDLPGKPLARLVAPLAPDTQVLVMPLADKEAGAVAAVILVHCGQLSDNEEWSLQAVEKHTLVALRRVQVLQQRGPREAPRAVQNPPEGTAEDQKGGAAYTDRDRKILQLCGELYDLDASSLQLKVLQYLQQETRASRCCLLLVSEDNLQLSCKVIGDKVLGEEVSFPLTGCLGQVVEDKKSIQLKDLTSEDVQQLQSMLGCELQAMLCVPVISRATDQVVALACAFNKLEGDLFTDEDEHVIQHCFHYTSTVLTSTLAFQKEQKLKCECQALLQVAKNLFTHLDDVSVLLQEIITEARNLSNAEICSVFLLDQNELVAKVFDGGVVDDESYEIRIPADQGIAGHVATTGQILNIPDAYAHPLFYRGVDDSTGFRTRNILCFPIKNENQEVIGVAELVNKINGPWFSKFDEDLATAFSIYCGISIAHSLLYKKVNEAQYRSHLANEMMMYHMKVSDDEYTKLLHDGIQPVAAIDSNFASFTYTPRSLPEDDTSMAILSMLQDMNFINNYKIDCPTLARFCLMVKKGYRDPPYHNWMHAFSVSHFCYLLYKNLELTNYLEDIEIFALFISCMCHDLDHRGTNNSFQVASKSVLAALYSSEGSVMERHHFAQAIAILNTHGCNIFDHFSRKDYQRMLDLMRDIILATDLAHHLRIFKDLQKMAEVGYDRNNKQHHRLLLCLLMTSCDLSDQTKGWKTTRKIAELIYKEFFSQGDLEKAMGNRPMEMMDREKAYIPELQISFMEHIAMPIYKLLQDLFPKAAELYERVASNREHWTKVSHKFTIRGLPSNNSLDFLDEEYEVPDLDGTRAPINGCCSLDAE
Chain of PDE3B (Q13370 whole entry, species assumed): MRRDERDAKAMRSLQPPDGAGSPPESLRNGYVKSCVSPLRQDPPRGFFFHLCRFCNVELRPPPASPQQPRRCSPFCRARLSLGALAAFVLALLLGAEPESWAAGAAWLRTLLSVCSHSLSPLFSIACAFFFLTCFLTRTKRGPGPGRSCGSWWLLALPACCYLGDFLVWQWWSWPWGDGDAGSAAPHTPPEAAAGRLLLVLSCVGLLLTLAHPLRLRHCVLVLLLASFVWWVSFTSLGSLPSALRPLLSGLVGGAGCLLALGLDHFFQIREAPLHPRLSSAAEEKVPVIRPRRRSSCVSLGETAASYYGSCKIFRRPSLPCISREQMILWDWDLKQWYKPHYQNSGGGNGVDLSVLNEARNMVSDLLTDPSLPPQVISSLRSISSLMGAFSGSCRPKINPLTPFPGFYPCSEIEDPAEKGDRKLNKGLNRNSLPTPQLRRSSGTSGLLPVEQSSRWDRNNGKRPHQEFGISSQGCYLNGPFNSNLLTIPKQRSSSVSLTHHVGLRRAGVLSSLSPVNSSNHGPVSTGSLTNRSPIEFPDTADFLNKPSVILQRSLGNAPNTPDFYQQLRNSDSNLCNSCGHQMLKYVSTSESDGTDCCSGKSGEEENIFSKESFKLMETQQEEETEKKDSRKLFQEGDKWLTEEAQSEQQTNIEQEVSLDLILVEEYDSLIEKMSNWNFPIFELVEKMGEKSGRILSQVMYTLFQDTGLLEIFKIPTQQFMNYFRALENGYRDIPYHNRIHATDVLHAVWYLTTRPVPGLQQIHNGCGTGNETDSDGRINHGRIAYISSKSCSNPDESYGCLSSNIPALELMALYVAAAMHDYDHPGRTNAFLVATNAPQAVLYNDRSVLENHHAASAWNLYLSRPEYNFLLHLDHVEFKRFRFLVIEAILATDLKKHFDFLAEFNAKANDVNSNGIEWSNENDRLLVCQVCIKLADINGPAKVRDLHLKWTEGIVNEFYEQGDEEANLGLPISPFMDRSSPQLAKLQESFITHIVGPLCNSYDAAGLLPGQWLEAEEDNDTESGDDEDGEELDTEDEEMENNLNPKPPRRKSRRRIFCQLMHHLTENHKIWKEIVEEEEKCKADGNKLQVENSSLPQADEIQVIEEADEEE
T3 sequence (Q08493 whole entry): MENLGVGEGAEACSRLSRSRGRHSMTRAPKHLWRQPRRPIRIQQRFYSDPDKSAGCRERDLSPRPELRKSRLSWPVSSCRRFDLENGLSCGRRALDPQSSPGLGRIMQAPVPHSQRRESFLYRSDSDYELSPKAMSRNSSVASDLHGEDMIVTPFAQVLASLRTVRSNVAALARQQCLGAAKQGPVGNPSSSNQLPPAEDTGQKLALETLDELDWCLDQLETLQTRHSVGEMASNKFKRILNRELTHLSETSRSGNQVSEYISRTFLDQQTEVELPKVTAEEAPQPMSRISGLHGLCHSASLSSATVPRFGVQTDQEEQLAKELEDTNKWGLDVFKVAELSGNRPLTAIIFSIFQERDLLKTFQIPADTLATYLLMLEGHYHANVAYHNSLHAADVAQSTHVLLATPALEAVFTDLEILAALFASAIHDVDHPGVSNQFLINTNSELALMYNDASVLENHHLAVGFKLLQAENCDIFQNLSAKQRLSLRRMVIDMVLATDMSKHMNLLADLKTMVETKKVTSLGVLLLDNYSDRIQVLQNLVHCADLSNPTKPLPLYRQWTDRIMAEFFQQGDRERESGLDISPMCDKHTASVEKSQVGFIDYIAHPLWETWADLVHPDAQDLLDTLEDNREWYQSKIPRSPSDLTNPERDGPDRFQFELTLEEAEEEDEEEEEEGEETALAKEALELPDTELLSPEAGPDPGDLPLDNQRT

Row | SMILES | inhibition at 1 µM (PDE5A1) | inhibition at 10 µM (PDE5A1) | IC50 (PDE4A1) | IC50 (PDE4B2) | IC50 (PDE4D3) | inhibition at 1 µM (PDE3B) | inhibition at 10 µM (PDE3B) | inhibition at 1 µM (PDE2A) | inhibition at 10 µM (PDE2A) | IC50 (PDE4C1) | inhibition at 1 µM (PDE7A) | inhibition at 10 µM (PDE7A) | inhibition at 1 µM (PDE10A1) | inhibition at 10 µM (PDE10A1) | inhibition at 1 µM (PDE1C) | inhibition at 10 µM (PDE1C)
1 | CCCCCc1ccc(NC(=O)CC)c2c1C(=O)N([C@H](CS(C)(=O)=O)c1ccc(OC)c(OCC)c1)C2=O [Example 13, (S)-2-[1-(3-ethoxy-4-methoxyphenyl)-2-alkylsulfonylethyl]-4-propanamido-7-pentyl isoindoline-1,3-diketone] | 14.1% | 20.3% | 100 to 200 nM | 100 to 200 nM | 10 to 50 nM | 3.31% | 0.94% | 0.08% | 13.8% | 200 to 500 nM | 0% | 9.96% | 16.3% | -26.7% | 5.34% | 51.7%
2 | [2H]C([2H])(CCCC)c1ccc(NC(C)=O)c2c1C(=O)N([C@H](CS(C)(=O)=O)c1ccc(OC)c(OCC)c1)C2=O [Example 32] | – | – | < 100 nM | < 100 nM | < 5 nM | – | – | – | – | < 200 nM | – | – | – | – | – | –
3 | [2H]c1c([2H])c(NC(C)=O)c2c(c1CCCCC)C(=O)N([C@H](CS(C)(=O)=O)c1ccc(OC)c(OCC)c1)C2=O [Example 33] | – | – | < 100 nM | < 100 nM | < 5 nM | – | – | – | – | < 200 nM | – | – | – | – | – | –
4 | CCCCCc1ccc(NC(=O)CCCCl)c2c1C(=O)N([C@H](CS(C)(=O)=O)c1ccc(OC)c(OCC)c1)C2=O [Example 5, (S)-2-[1-(3-ethoxy-4-methoxyphenyl)-2-alkylsulfonylethyl]-4-(γ-chlorobutyramido)-7-pentyl isoindoline-1,3-diketone] | 0.66% | 8.39% | < 100 nM | < 100 nM | 10 to 50 nM | 0.06% | -0.69% | 0.83% | 9.01% | 200 to 500 nM | 0% | 1.94% | 2.21% | 5.46% | 8.26% | 30.8%
5 | CCCCCc1ccc(NC(=O)CF)c2c1C(=O)N([C@H](CS(C)(=O)=O)c1ccc(OC)c(OCC)c1)C2=O [Example 28, (S)-2-[1-(3-ethoxy-4-methoxyphenyl)-2-alkylsulfonylethyl]-4-fluoroacetamido-7-pentyl isoindoline-1,3-diketone] | 0% | 4.16% | – | – | 5 to 10 nM | 3.69% | 6.44% | 0% | 5.83% | – | 0.55% | 10.5% | 29.1% | 0.04% | 1.46% | 24.8%
6 | C=CC(=O)Nc1ccc(CCCCC)c2c1C(=O)N([C@H](CS(C)(=O)=O)c1ccc(OC)c(OCC)c1)C2=O [Example 29, (S)-2-[1-(3-ethoxy-4-methoxyphenyl)-2-alkylsulfonylethyl]-4-acrylamido-7-pentyl isoindoline-1,3-diketone] | 5.72% | 13% | – | – | 5 to 10 nM | 0% | -1.94% | 7.19% | 15.8% | – | 17.4% | 19.9% | 0% | 16.1% | 4.13% | 26%
7 | CCCCC(O)c1ccc(NC(C)=O)c2c1C(=O)N([C@H](CS(C)(=O)=O)c1ccc(OC)c(OCC)c1)C2=O (mixture of isomers) [Example 55] | – | – | < 100 nM | < 100 nM | < 5 nM | – | – | – | – | < 200 nM | – | – | – | – | – | –
8 | CCCCC(=O)c1ccc(NC(C)=O)c2c1C(=O)N([C@H](CS(C)(=O)=O)c1ccc(OC)c(OCC)c1)C2=O [Example 56] | – | – | < 100 nM | < 100 nM | 10 to 50 nM | – | – | – | – | 200 to 500 nM | – | – | – | – | – | –
9 | CCCCCc1ccc(NC(=O)CCCl)c2c1C(=O)N([C@H](CS(C)(=O)=O)c1ccc(OC)c(OCC)c1)C2=O [Example 24] | 0% | 11.5% | – | – | 10 to 50 nM | 0% | -0.81% | 0% | 7.79% | – | 0% | 4.15% | 6.04% | 11.4% | 3.89% | 34.5%
10 | CCCCc1ccc(NC(=O)CCCCl)c2c1C(=O)N([C@H](CS(C)(=O)=O)c1ccc(OC)c(OCC)c1)C2=O [Example 27, (S)-2-[1-(3-ethoxy-4-methoxyphenyl)-2-alkylsulfonylethyl]-4-(γ-chlorobutyramido)-7-butyl isoindoline-1,3-diketone] | 0% | 8.14% | – | – | 10 to 50 nM | 0% | -1.31% | 0% | 8.1% | – | 2.21% | 14.7% | 11.9% | 1.01% | 12.1% | 67.5%

— patent US20240254082A1, “Substituted Isoindoline-1, 3-diketone PDE4 Inhibitor and Pharmaceutical Application Thereof” (SUZHOU INTRAGRAND PHARMA CO., LTD, priority 2021, published 2024)
